Experimental data as given in PMC11050087, “Polyphenols from Maackia amurensis Heartwood Protect Neuronal Cells from Oxidative Stress and Prevent Herpetic Infection” (International Journal of Molecular Sciences, 2024).
Where “and” joins values, the source holds several entries; their conditions need not be identical. Equal entries are not always repeated.

How the values were obtained:
HSV-1 [1] = assay: Virucidal activity, RT-PCR assay (HSV-1 pretreated with compounds); assay type: cell-based, HSV-1 strain L2; conditions: for Ct: 72 h; for −ΔCt: vs virus control
Experimental: Vero cells grown on 96-well plates were infected with the virus (100 TCID50/mL), pretreated with polyphenolic compounds at concentrations 0.1, 1 and 10 μg/mL. After 72 h of cell incubation, viral DNA was extracted from the supernatants, and the relative level of HSV-1 DNA was determined using RT-PCR. The effect of polyphenols on the relative level of viral DNA was assessed using the 2^−∆Ct method and reported as fold reduction compared to virus control.
(§1) The HSV-1 strain L2 obtained from N.F. Gamaleya Federal Research Centre for Epidemiology and Microbiology (Moscow, Russia) was grown in Vero cells as previously described.
(§2) We determined the direct inhibitory effect of polyphenolic compounds from M. amurensis heartwood on HSV-1 (virucidal effect). We mixed the virus at an infectious dose (100 TCID50/mL) with polyphenolic compounds (from 0.1 to 100 µg/mL) at a ratio of 1:1 (v/v) and incubated for an hour at 37 °C. Then, we infected the monolayer of Vero cells grown on 96-well plates (1 × 10^4 cells/well) with HSV-1 pretreated with the studied compounds. After 1 h adsorption at 37 °C, the cells were washed with phosphate-buffered saline (PBS) and overlaid by the maintenance medium with 1% FBS. The plates were incubated for 72 h at 37 °C in a CO2-incubator. The cytopathic effect (CPE) inhibition assay and real-time reverse transcription-PCR (RT-PCR) assay were used to evaluate virucidal effect of the tested compounds.
We performed the RT-PCR assay as we previously described in detail in [22]. Briefly, HSV-1 DNA was extracted after incubation from cell supernatants by using the DNA-sorb-AM (K1-12-100-CE) nucleic acid extraction kit (AmpliSens®, Moscow, Russia) according to the manufacturer′s instructions. We treated the supernatants with a lysis solution that contained guanidine chloride (chaotropic agent) in the presence of sorbent (silica particles). As the elution solution was added, the DNA was […] silica particles and separated from the sorbent particles by centrifugation.
We detected the DNA of HSV-1 in the obtained samples using the AmpliSens® HSV I, II-FRT-100F PCR kit (AmpliSens®, Moscow, Russia) on a real-time PCR instrument Rotor-Gene Q (Qiagen, Hilden, Nordrhein-Westfalen, Germany) according to the manufacturer′s instructions. The PCR reaction conditions were the following: initial denaturation at 95 °C for 15 min; then 5 cycles at 95 °C for 5 s, at 60 °C for 20 s, at 72 °C for 15 s; then 40 cycles at 95 °C for 5 s, at 60 °C for 20 s, and at 72 °C for 15 s. A negative sample was used as the amplification control for each run. The threshold cycle number Ct, was measured as the PCR cycle, where the amount of the amplified target reached the threshold value; the Ct values ≥ 37 indicated the absence of the HSV-1 DNA in the samples. We assessed the anti-HSV-1 activity of the studied compounds by the reduction in the viral DNA levels using the 2^−ΔCt method according to Equation (2):(2) ΔCt=Ctcv−Cttv where Ct is the threshold cycle number measured as the PCR cycle, where the amount of the amplified target reached the threshold value, […]

[2] = Cytotoxicity against Vero cells (MTT assay); assay type: cell-based; conditions: African green monkey
Experimental: We prepared the stock solutions of the tested compounds (10 mg/mL) in DMSO (Sigma, St. Louis, MO, USA). For the MTT assay and further studies of anti-HSV-1 activity, we diluted the stock solutions with DMEM so that the final concentration of DMSO was 0.5%.
We used MTT assay to determine the cytotoxic effect of the tested compounds against Vero cells. We performed the MTT assay as previously described.

HSV-1 [3] = assay: Virucidal activity, CPE inhibition assay (HSV-1 pretreated with compounds); assay type: cell-based, HSV-1 strain L2
Experimental: The antiviral activity of polyphenols from M. amurensis against HSV-1 was assessed using the cytopathic effect inhibition (CPE) assay. To study the inhibitory effect of polyphenolic compounds directly on the HSV-1 virus (direct virucidal activity), the monolayer of Vero cells grown on 96-well plates (1 × 10^4 cells/well) was infected with the virus (100 TCD50/mL), pretreated with different concentrations of polyphenolic compounds.
as §1, §2
We previously described this method in detail in [22]. We performed the MTT assay to evaluate the antiviral activity of polyphenolic compounds. The viral inhibition rate (IR, %) was calculated according to Equation (1):(1) IR, %=Atv−Acv/Acd−Acv×100, where Atv is the absorbance of cells infected with HSV-1 pretreated with the studied compounds,
We calculated the selectivity index (SI) as the ratio of CC50 to IC50. Experiments were repeated three times.

[4] = test system: 6-OHDA-treated Neuro-2a cells; assay: Apoptosis profile by flow cytometry (Annexin V & Dead Cell Kit); assay type: cell-based, murine; conditions: Table 1; polyphenols 10 µM, 6-OHDA 100 µM, 24 h; mean
Experimental: We investigated the effect of polyphenolic compounds from M. amurensis on apoptosis profile in 6-OHDA-treated Neuro-2a cells by flow cytometry using fluorescent annexin V conjugate as a fluorescent dye. We observed significant changes in apoptosis profile in Neuro-2a cells after 6-OHDA-treatment. […] Polyphenols 3, 6 and 13 diminished the neurotoxic effect of 6-OHDA-treatment.
The cells were incubated for 1 h in a 6-well plate (5 × 10^4 cells/mL) with polyphenolic compounds (10 µM). Then, 6-OHDA (100 µM) was added, and cell suspension was incubated for 24 h. After incubation, the maintenance media was collected, and the cells were washed by cold PBS twice and incubated with trypsin-EDTA solution. The cell suspension was washed with cold PBS twice again, centrifugated and then used for apoptosis detection by Muse® Annexin V & Dead Cell Kit in accordance with the manufacturer’s instructions (Luminex, Austin, TX, USA). The fluorescence was measured with Muse® Cell Analyzer (Luminex, Austin, TX, USA) and the data were processed by Muse 1.5 Analysis software (Luminex, Austin, TX, USA).

[5] = test system: 6-OHDA-treated Neuro-2a cells; assay: Mitochondrial membrane potential detection (TMRM) in 6-OHDA-treated cells; assay type: cell-based, murine; conditions: compound 10 µM; 6-OHDA 120 µM
Experimental: We determined the effect of polyphenolic compounds from M. amurensis on 6-OHDA-induced mitochondrial dysfunction in Neuro-2a cells (Figure 6a,b).
Figure 6 The effect of polyphenolic compounds isolated from M. amurensis heartwood on mitochondrial membrane potential in Neuro-2a cells treated with 6-OHDA (120 μM) (a,b). Polyphenolic compounds isolated from M. amurensis heartwood were used at concentrations 10, 1, 0.1 μM. The data are presented as means ± SEM of three independent replicates. (*) and (***) indicate, respectively, p < 0.05 and p < 0.001 versus 6-OHDA-treated cells.
The cells were incubated for 1 h in a 96-well plate (1 × 10^4 cells/well) with polyphenolic compounds (0.1, 1 and 10 µM). Then, 6-OHDA (120 µM) was added, and cell suspension was incubated for 1 h. Cells incubated without 6-OHDA and compounds and with 6-OHDA alone were used as positive and negative control, respectively. The tetramethylrhodamine methyl (TMRM) (Sigma-Aldrich, St. Louis, MO, USA) solution (500 nM) was added to each well and cells were incubated for 30 min at 37 °C. The intensity of fluorescence was measured using a PHERAstar FSplate reader (BMG Labtech, Ortenberg, Germany) at λex = 540 nm and λem = 590 nm. The data were processed by MARS Data Analysis v. 3.01R2 (BMG Labtech, Ortenberg, Germany).

[6] = test system: 6-OHDA-treated Neuro-2a cells; assay: ROS analysis in 6-OHDA-treated cells (H2DCF-DA); assay type: cell-based, murine; conditions: compound 0.1 µM
Experimental: We studied the effect of polyphenolic compounds set on ROS levels in 6-OHDA-treated Neuro-2a cells (Figure 5a–d).
Figure 5 The effect of polyphenolic compounds isolated from M. amurensis heartwood on ROS levels in Neuro-2a cells treated with 6-OHDA (120 μM) (a–d). Polyphenolic compounds isolated from M. amurensis heartwood were used at concentrations 10, 1, 0.1 μM. The data are presented as means ± SEM of three independent replicates.
After 24 h of adhesion, Neuro-2a cells (5 × 10^4 cells/mL) were incubated with polyphenolic compounds at concentrations of 0.1, 1, and 10 µM for 1 h. Then, 120 µM of 6-OHDA or 1 mM of PQ were added to each well, and cells were incubated for 1 h. To study the ROS formation, 20 µL of 2,7-dichlorodihydrofluorescein diacetate solution (H2DCF-DA, Sigma-Aldrich, St. Louis, MO, USA) were added to each well, so that the final concentration was 10 µM. Then, the microplate was incubated for 30 min at 37 °C.

[7] = Human alphaherpesvirus 1, 72 h, read-out: 2^−ΔCt
[8] = Human alphaherpesvirus 1, 72 h, read-out: log10

COc1ccc([C@H]2COc3cc(O)ccc3[C@@H]2c2c(O)cc(O)cc2/C=C/c2ccc(O)c(O)c2)c(O)c1 [Compound 14, maackiapicevestitol]
Ct (HSV-1 [1]; 0.1 µg/mL): 18.4 ± 2.4 | −ΔCt (HSV-1 [1]; 0.1 µg/mL): −0.30 ± 0.03 | Ct (HSV-1 [1]; 1 µg/mL): 19.2 ± 2.5 | −ΔCt (HSV-1 [1]; 1 µg/mL): −1.1 ± 0.1 | anti-HSV-1 activity by RT-PCR (in words) (HSV-1 [1]; 10 µg/mL): significantly reduced the level of viral DNA | Ct (HSV-1 [1]; 10 µg/mL): 27.1 ± 3.8 | −ΔCt (HSV-1 [1]; 10 µg/mL): −9.0 ± 1.2 | activity at 0.1 µg/mL (HSV-1 [1]; [7]): 81.2 ± 11% | activity at 1 µg/mL (HSV-1 [1]; [7]): 46.6 ± 5.6% | activity at 10 µg/mL (HSV-1 [1]; [7]): 0.195 ± 0.02% | log reduction at 0.1 µg/mL (HSV-1 [1]; [8]): 0.09 ± 0.01 | log reduction at 1 µg/mL (HSV-1 [1]; [8]): 0.33 ± 0.04 | log reduction at 10 µg/mL (HSV-1 [1]; [8]): 2.7 ± 0.3 | CC50 [2]: 162 µg/mL and 316 µM | IC50 (HSV-1 [3]; Human alphaherpesvirus 1, virus pretreated with compound (virucidal), CPE assay, Vero cells, 100 TCID50/mL): 8.6 µg/mL and 16.7 µM | SI (HSV-1 [3]; ratio of CC50 to IC50, virucidal scheme): 18.9 ± 2.8

retusin [Compound 3]
Dead [4]: 1.18 ± 0.24% | Early apop. [4]: 19.63 ± 0.79 % | Late apop./Dead [4]: 11.31 ± 0.49% | Live [4]: 67.89 ± 1.52 % | virucidal activity against HSV-1 by RT-PCR (in words) (HSV-1 [1]; 0.1, 1 and 10 µg/mL): did not demonstrate virucidal activity | effect on mitochondrial membrane potential (in words) [5]: weak activity | inhibition of ROS formation in 6-OHDA-treated Neuro-2a cells (in words) [6]: considerably inhibited ROS formation | virucidal activity against HSV-1 (in words) (HSV-1 [3]; CPE assay, virus pretreated with compound): did not show virucidal activity
